Test results reported in patent US12594276B2, “Inhibitors of human immunodeficiency virus replication” (ViiV Healthcare UK (No.5) Limited, priority 2024, dated 2026).

Assays:
[1] = Compound cytotoxicity, XTT-based colorimetric assay; format: cell-based; details: human; uninfected MT2 cells, day 4, XTT; read-out: CC50
Method in brief: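 Uninfected MT2 cells were treated with compound under the same protocol as the antiviral assay. Viability was read on day 4 with an XTT colorimetric assay, from which CC50 values were derived.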

[2] = tested on: recombinant NL4-3 virus (nef section replaced with Renilla luciferase gene) in MT-2 cells; experiment: HIV cell culture assay (antiviral activity, luciferase readout); format: cell-based; details: Renilla, NL43, MT-2 cells infected for 4-5 days with recombinant NL4-3 Renilla luciferase virus
Method in brief: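 EC50 was derived by median-effect fitting of Renilla luciferase signal from MT-2 cells. These cells were infected for 4–5 days with NL4-3 reporter virus (nef partly replaced by luciferase; made in 293T cells) in the presence of serially diluted compound. Activity was quantified with a live-cell luciferase substrate.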

In the case of `Cc1cc(C2CCC(F)(F)CC2)nc2nc([C@H](Cc3cc(F)cc(F)c3)NC(=O)Cn3nc(C(F)(F)F)c4c3C(F)(F)[C@@H]3C[C@H]43)n(-c3ccc(Cl)c4c(NS(C)(=O)=O)nn(CCCN5CCOCC5)c34)c(=O)c12` (atropisomer, axis not shown; (P)) [Example 121, N-[(1S)-1-[(3P)-3-{4-chloro-3-methanesulfonamido-1-[3-(morpholin-4-yl)propyl]-1H-indazol-7-yl}-7-(4,4-difluorocyclohexyl)-5-methyl-4-oxo-3H,4H-pyrido[2,3-d]pyrimidin-2-yl]-2-(3,5-difluorophenyl)ethyl]-2-[(2S,4R)-5,5-difluoro-9-(trifluoromethyl)-7,8-diazatricyclo[4.3.0.0^2,^4]nona-1(6),8-dien-7-yl]acetamide], the CC50 at 4 days [1] is reported as > 50 nM and the EC50 [2] is reported as 0.027 nM.

With `Cc1cc(C2CCC(F)(F)CC2)nc2nc([C@H](Cc3cc(F)cc(F)c3)NC(=O)Cn3nc(C(F)F)c4c3C(F)(F)[C@@H]3C[C@H]43)n(-c3ccc(Cl)c4c(NS(C)(=O)=O)nn(CCN5CCC(F)(F)CC5)c34)c(=O)c12` (atropisomer, axis not shown; (P)) [Example 128, N-[(1S)-1-[(3P)-3-{4-chloro-1-[2-(4,4-difluoropiperidin-1-yl)ethyl]-3-methanesulfonamido-1H-indazol-7-yl}-7-(4,4-difluorocyclohexyl)-5-methyl-4-oxo-3H,4H-pyrido[2,3-d]pyrimidin-2-yl]-2-(3,5-difluorophenyl)ethyl]-2-[(2S,4R)-9-(difluoromethyl)-5,5-difluoro-7,8-diazatricyclo[4.3.0.0^2,^4]nona-1(6),8-dien-7-yl]acetamide] the CC50 at 4 days [1] was > 50 nM and the EC50 [2] was 0.013 nM.

For `Cc1cc(C2CCC(F)(F)CC2)nc2nc([C@H](Cc3cc(F)cc(F)c3)NC(=O)Cn3nc(C(F)F)c4c3C(F)(F)[C@@H]3C[C@H]43)n(-c3ccc(Cl)c4c(NS(C)(=O)=O)nn(CCOC(C)(C)C)c34)c(=O)c12` (atropisomer, axis not shown; (P)) [Example 129, N-[(1S)-1-[(3P)-3-{1-[2-(tert-butoxy)ethyl]-4-chloro-3-methanesulfonamido-1H-indazol-7-yl}-7-(4,4-difluorocyclohexyl)-5-methyl-4-oxo-3H,4H-pyrido[2,3-d]pyrimidin-2-yl]-2-(3,5-difluorophenyl)ethyl]-2-[(2S,4R)-9-(difluoromethyl)-5,5-difluoro-7,8-diazatricyclo[4.3.0.0^2,^4]nona-1(6),8-dien-7-yl]acetamide], the CC50 at 4 days [1] was > 50 nM and the EC50 [2] was 0.024 nM.

For `CS(=O)(=O)Nc1nn(CCN2CCC(F)(F)CC2)c2c(-n3c([C@H](Cc4cc(F)cc(F)c4)NC(=O)Cn4nc(C(F)F)c5c4C(F)(F)[C@@H]4C[C@H]54)nc4nc(C5CCC(F)(F)CC5)ccc4c3=O)ccc(Cl)c12` (atropisomer, axis not shown; (P)) [Example 130, N-[(1S)-1-[(3P)-3-{4-chloro-1-[2-(4,4-difluoropiperidin-1-yl)ethyl]-3-methanesulfonamido-1H-indazol-7-yl}-7-(4,4-difluorocyclohexyl)-4-oxo-3H,4H-pyrido[2,3-d]pyrimidin-2-yl]-2-(3,5-difluorophenyl)ethyl]-2-[(2S,4R)-9-(difluoromethyl)-5,5-difluoro-7,8-diazatricyclo[4.3.0.0^2,^4]nona-1(6),8-dien-7-yl]acetamide], the CC50 at 4 days [1] was > 50 nM and the EC50 [2] was 0.013 nM.
